The values below are quoted from earlier work in patent US6770269B1, “Cosmetic and dermatological light-protective formulations containing triazine derivatives and one or several esters of unbranched-chain carboxylic acids and branched-chain alcohols” (Beiersdorf AG, priority 1998, dated 2004).

With `CCCCC(CC)COC(=O)c1ccc(Nc2nc(Nc3ccc(C(=O)OCC(CC)CCCC)cc3)nc(Nc3ccc(C(=O)OCC(CC)CCCC)cc3)n2)cc1` (centres unmarked) [UVINUL7 T 150, tris(2-ethylhexyl) 4,4′,4″-(1,3,5-triazine-2,4,6-triyltriimino)trisbenzoate], the “corresponding dissolved, and therefore active, UV filter substance” value (corresponds to the maximum solubility in known solvents) is given as 1-1.5 % by weight. Further, the “maximum amount of the filter that known solvents can dissolve” value (known solvents (lipids), prior art) is on record as “about 15 % by weight”.
